Reference: patent US20070015723A1, “Antiviral oligonucleotides having a conserved G4 core sequence” (priority 1992, published 2007)
Several values for one entry are separate records, joined by “and”; a condition that tells them apart may be missing. Identical values can stand only once. Like-named read-outs stand apart in the source and are kept apart here. Strand notation (5' to 3'): a small letter for the sugar, then the base; units joined by * are phosphorothioate-linked, units joined directly phosphodiester-linked; [ ] holds rarer units or linkages, { } end groups; capitals alone tell only the bases. d = 2'-deoxy (DNA)

Key:
[1] = tested on: influenza strain A/NWS/33 (H1N1); assay type: cell-based, influenza virus
HSV-1 (KOS) [2] = assay: Effect of time of oligonucleotide addition on HSV-1 inhibition (NHDF cells, ELISA); assay type: cell-based; parameters: dose or concentration left out as unconfirmed; settings: added at the time of virus infection (t=0)
vaccinia virus = assay type: cell-based
[3] = tested on: rhinovirus 2 (R-2), strain HGP; assay type: cell-based, human rhinovirus
[4] = tested on: respiratory syncytial virus (RSV) strain Long; assay type: cell-based
HSV-2 strain E194 = assay type: cell-based
[5] = tested on: Adenovirus, Type 5 (A-5), strain Adenoid 75; assay type: cell-based
CEM cell line = assay: Cytotoxicity (TC50) alongside acute HIV infection assay
HIV-1IIIB = assay: Acute HIV infection assay (XTT, CEM cells); settings: for IC50: inhibition of HIV
HSV-1 (KOS) [6] = assay: HSV-1 infection ELISA assay; assay type: cell-based
HSV1-F = assay: HSV ELISA assay, strain HSV1-F; assay type: cell-based, HSV-1
HSV1-DM2.1 = assay: microbe, parasite or virus in culture; assay type: cell-based, HSV-1
HSV1-McKrae = assay: HSV ELISA assay, strain HSV1-McKrae; assay type: cell-based, HSV-1
HSV-2 = assay: HSV ELISA assay, HSV-2; assay type: cell-based
HSV1-PAAr = assay: microbe, parasite or virus in culture; assay type: cell-based, HSV-1
[7] = tested on: Crotalus durissus terrificus phospholipase A2
[8] = molecular target: T1, human type II phospholipase A2 (Homo sapiens, UniProt P14555); assay: Human type II phospholipase A2 enzyme assay (3H-oleic acid labelled E. coli substrate); assay type: biochemical
T1 sequence (P14555 21-144): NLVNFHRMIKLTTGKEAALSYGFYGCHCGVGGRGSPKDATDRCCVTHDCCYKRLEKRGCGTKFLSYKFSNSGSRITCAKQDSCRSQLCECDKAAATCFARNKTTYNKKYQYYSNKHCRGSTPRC

[9] = molecular target: Bovine pancreatic phospholipase A2 (Bos taurus, UniProt P00593)
Chain of Bovine pancreatic phospholipase A2 (P00593 23-145): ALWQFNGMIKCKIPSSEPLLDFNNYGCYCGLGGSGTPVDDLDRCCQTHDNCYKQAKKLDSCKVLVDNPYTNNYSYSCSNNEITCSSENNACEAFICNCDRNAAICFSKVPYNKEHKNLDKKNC

[10] = tested on: Phospholipase A2 isolated from the venom of Trimeresurus flavoridis; assay: Phospholipase A2 enzyme assay, Trimeresurus flavoridis venom enzyme; assay type: biochemical
[11] = molecular target: Apis mellifera phospholipase A2 (Apis mellifera, UniProt P00630)
HSV-1 (KOS) [12] = assay: HSV-1 virus yield assay; assay type: cell-based; settings: FIG. 2
HIV = assay type: cell-based
varicella zoster virus = assay type: cell-based
CD4/gp120 interaction = CD4/gp120 interaction (Human immunodeficiency virus type 1 group M subtype B, UniProt P03375); settings: ELISA; Callahan et al.; cited from earlier work
[13] = 50% inhibition of HSV replication relative to control infected cells, Table 1

In the case of “ISIS 3383: scrambled version of ISIS 1082, SEQ ID NO: 122; negative control oligonucleotide (TGGGCACGTGCCTGACACGGC; chemistry not given here)”, the ED50 [1] is reported as 19000 nM, the TI [1] is reported as >5 and the “inhibition of HSV replication” value (HSV-1 (KOS) [2]) is reported as “inhibited HSV replication”. The ED50 (vaccinia virus) was >100000 nM, the ED50 [3] was >100000 nM and the ED50 [4] was 700 nM. For the same compound, the TI [4] was 60, the ED50 (HSV-2 strain E194) was 2800 nM and the TI (HSV-2 strain E194) was >36. For the same compound, the ED50 [5] was >100000 nM.
For “ISIS 4721: CAC GGG GTC G, P = S, SEQ ID NO 32 (CACGGGGTCG; all phosphorothioate, sugars by position and methylation of C not given here)”, the TC50 (CEM cell line) was 142000 nM, the “TI (TC50/IC50)” value (HIV-1IIIB) was 546 and the IC50 (HIV-1IIIB) was 210 nM and 260 nM. For the same compound, the EC50 (HSV-1 (KOS) [6]; [13]) was 400 nM.
For “ISIS 1082: GCCGAGGTCCATGTCGTACGC, SEQ ID NO 134; negative control, complementary to HSV UL13 translation initiation codon, no runs of G (dG*dC*dC*dG*dA*dG*dG*dT*dC*dC*dA*dT*dG*dT*dC*dG*dT*dA*dC*dG*dC)”, the EC50 (HSV1-F) was > 3000 nM, the EC50 (HSV1-DM2.1; HSV1-DM2.1 (resistant to ACV), read-out: EC50) was > 3000 nM and the EC50 (HSV1-McKrae) was > 3000 nM. The EC50 (HSV-2) was 2000 nM, the EC50 (HSV-1 (KOS) [6]; HSV-1 (KOS strain), Table 9, some in duplicate) was 2500 nM and 1800 nM and the EC50 (HSV-1 (KOS) [6]; HSV-1 (KOS), Table 10) was 2100 nM. For the same compound, the EC50 (HSV1-PAAr; HSV1-PAAr (resistant to ACV), read-out: EC50) was > 3000 nM.
NC(=O)c1ncn([C@@H]2O[C@H](CO)[C@@H](O)[C@H]2O)n1 [Ribavirin] showed an ED50 [1] of 7780 nM, an ED50 [3] of 229000 nM and an ED50 [4] of 49000 nM. The ED50 [5] was 82000 nM.
In the case of “ISIS 3196: GGG T GGG T ATA G AAG G GCT CC, P = S, SEQ ID NO 47 (GGGTGGGTATAGAAGGGCTCC; all phosphorothioate, sugars by position and methylation of C not given here)”, the IC50 [7] is reported as ~300 nM, the “inhibition of human type II phospholipase A2” value ([8]; 1 μM) is reported as “completely inhibited” and the “% Inhibition (1 μM)” value ([8]; 1 μM, Table 4) is reported as 98.5%. The “% Inhibition (1 μM)” value ([8]; 1 μM, Table 5, two separate experiments) was 100% and 76.2%, the IC50 ([8]; FIG. 5) was ~150 nM and the “effect on substrate kinetics” value ([8]; increasing E. coli substrate, ISIS 3481 at 0.2 μM and 2 μM) was “apparent noncompetitive inhibitor”. The “inhibitory activity (% inhibition)” value ([8]; not boiled) was 94%, the “inhibitory activity (% inhibition)” value ([8]; placed in boiling water for 15 minutes prior to assay) was 21% and the IC50 [9] was ~100000 nM. For the same compound, the IC50 [10] was > 10000 nM, the IC50 [11] was > 100000 nM and the EC50 (HSV-1 (KOS) [6]; [13]) was 200 nM.
For “ISIS 5652: TT GGGG TT GGGG TT GGGG TT, P = S, SEQ ID NO 37 (TTGGGGTTGGGGTTGGGGTT; all phosphorothioate, sugars by position not given here)”, the ED50 [1] was 600 nM, the TI [1] was 93 and the “anti-HSV activity in virus yield assay” value (HSV-1 (KOS) [12]) was “dose-dependent anti-HSV activity”. For the same compound, the ED50 (HIV) was 180 nM, the TI (HIV) was 227 and the ED50 (varicella zoster virus) was 18000 nM. For the same compound, the “TI (TC50/IC50)” value (HIV-1IIIB) was 227, the IC50 (HIV-1IIIB) was 100 nM and 180 nM and the ED50 [3] was >100000 nM. For the same compound, the ED50 [4] was 1900 nM, the TI [4] was >53 and the ED50 (HSV-2 strain E194) was 300 nM. For the same compound, the TI (HSV-2 strain E194) was >333, the ED50 [5] was >100000 nM and the TI [5] was <1.0. It also gave an EC50 (HSV-1 (KOS) [6]; [13]) of 160 nM.
For Nc1nc2c(ncn2COCCO)c(=O)[nH]1 [ACV, 9-(2-hydroxyethoxymethyl)guanine], the EC50 (HSV1-F; Human alphaherpesvirus 1) was 700 nM, the EC50 (HSV1-DM2.1; Human alphaherpesvirus 1) was > 3000 nM and the EC50 (HSV1-McKrae; Human alphaherpesvirus 1) was 1800 nM. For the same compound, the EC50 (HSV-2; Human alphaherpesvirus 2) was 2000 nM, the ED50 (HSV-2 strain E194) was 97700 nM and the EC50 (HSV1-PAAr; Human alphaherpesvirus 1) was > 3000 nM.
In the case of Dextran sulfate, the “effect on the gp120/CD4 interaction” value (CD4/gp120 interaction) is listed as “does not prevent the gp120/CD4 interaction”.
For Nc1ncnc2c1ncn2[C@@H]1O[C@H](CO)[C@@H](O)[C@@H]1O [Ara-A, 9-(β-D-arabinofuranosyl)adenine], the ED50 (vaccinia virus; Vacc) was 15800 nM.
